Test results from patent publication US10081667B2, “Composition and method for therapeutic agent delivery during pregnancy” (University of Mississippi Medical Center, priority 2013, dated 2018).
Where no end group is shown, it is not given here.

B1: VEGF121: free recombinant vascular endothelial growth factor VEGF121, comparator (protein)
chain: MSKGPGVGVPGAGVPGGGVPGAGVPGGGVPGAGVPGGGVPGAGVPGGGVPGAGVPGGGVPGAGVPGGGVPGAGVPGGGVPGAGVPGVGVPGAGVPGGGVPGAGVPGGGVPGAGVPGGGVPGAGVPGGGVPGAGVPGGGVPGAGVPGGGVPGAGVPGGGVPGAGVPGVGVPGAGVPGGGVPGAGVPGGGVPGAGVPGGGVPGAGVPGGGVPGAGVPGGGVPGAGVPGGGVPGAGVPGGGVPGAGVPGVGVPGAGVPGGGVPGAGVPGGGVPGAGVPGGGVPGAGVPGGGVPGAGVPGGGVPGAGVPGGGVPGAGVPGGGVPGAGVPGVGVPGAGVPGGGVPGAGVPGGGVPGAGVPGGGVPGAGVPGGGVPGAGVPGGGVPGAGVPGGGVPGAGVPGGGVPGAGVPGVGVPGAGVPGGGVPGAGVPGGGVPGAGVPGGGVPGAGVPGGGVPGAGVPGGGVPGAGVPGGGVPGAGVPGGGVPGAGVPGVGVPGAGVPGGGVPGAGVPGGGVPGAGVPGGGVPGAGVPGGGVPGAGVPGGGVPGAGVPGGGVPGAGVPGGGVPGAGVPGVGVPGAGVPGGGVPGAGVPGGGVPGAGVPGGGVPGAGVPGGGVPGAGVPGGGVPGAGVPGGGVPGAGVPGGGVPGAGVPGVGVPGAGVPGGGVPGAGVPGGGVPGAGVPGGGVPGAGVPGGGVPGAGVPGGGVPGAGVPGGGVPGAGVPGGGVPGAGVPGVGVPGAGVPGGGVPGAGVPGGGVPGAGVPGGGVPGAGVPGGGVPGAGVPGGGVPGAGVPGGGVPGAGVPGGGVPGAGVPGWPGSGAPMAEGGGQNHHEVVKFMDVYQRSYCHPIETLVDIFQEYPDEIEYIFKPSCVPLMRCGGCCNDEGLECVPTEESNITMQIMRIKPHQGQHIGEMSFLQHNKCECRPKKDRARQEKCDKPRR
modifications: synthetic ELP-VEGF sequences
notes: free recombinant vascular endothelial growth factor VEGF121, comparator

Key:
[1] = Pharmacokinetics and biodistribution of SynB1-ELP-p50 versus free p50 peptide in pregnant rats
[2] = ELP-VEGF pharmacokinetics and biodistribution in mice after bolus IV; format: in vivo, C57/B16 mice
Experimental: FIG. 12 includes graphs showing ELP-VEGF pharmacokinetics and biodistribution. FIG. 12A. Fluorescently labeled free VEGF or ELP-VEGF were administered by IV injection to C57/B16 mice. Plasma levels were determined by direct fluorescence quantitation and fit to a two-compartment pharmacokinetic model. FIG. 12B. […] FIG. 12D.
In addition to examining the ELP-VEGF activity in vitro, the pharmacokinetics (PK) and biodistribution of ELP-VEGF in comparison to free VEGF121 is also determined. Both free VEGF121 and ELP-VEGF were fluorescently labeled, and their PK and biodistribution were determined in mice after bolus intravenous administration. […] This is consistent with other reports of approximately a 30 minute half-life for recombinant VEGF in humans. ELP-VEGF cleared more slowly than free VEGF121 (FIG. 12A). […] Four hours after the infusion, the biodistribution was determined by ex vivo whole organ fluorescence imaging.

[3] = tested on: human umbilical vein endothelial cells (HUVECs); assay: HUVEC proliferation, MTS cell proliferation assay; format: cell-based; details: 72 h exposure
Experimental: FIG. 9 is a bar graph showing ELP-VEGF stimulation of HUVEC proliferation. HUVEC cell proliferation was determined after 72 h exposure to ELP, VEGF, or ELP-VEGF at the indicated concentrations using the MTS cell proliferation assay.
Proliferation of human umbilical vein endothelial cells (HUVECs) is stimulated when the cell are exposed to VEGF.

Molecule | initial plasma levels relative to SynB1-ELP-p50 levels ([1]; 100 mg/kg single bolus, pregnant rats) | entry into fetal circulation / pups ([1]; four hours after injection) | total placental levels relative to SynB1-ELP-p50 ([1]; four hours after injection) | terminal plasma half-life ([2]; bolus IV, 2-compartment PK model) | organ accumulation, ex vivo whole organ fluorescence imaging ([2]; four hours after the infusion) | stimulation of HUVEC proliferation [3]
VQRKRQKLMP [p50 peptide] | about 100 fold lower | freely entered the fetal circulation and was visible in the pups | thirty fold lower |  |  | 
B1 |  |  |  | approximately 30 minutes | accumulated most highly in the kidneys and the liver | stimulated HUVEC proliferation with equal potency
